Experimental data reported in patent US10968269B1, “MHC multimers in borrelia diagnostics and disease” (Agilent Technologies, Inc., priority 2008, dated 2021).

What was measured:
[1] = molecular target: HLA-A*0201-β2m-… peptide-complex (human); test: sandwich ELISA: W6/32 coated, MHC complex added, HRP rabbit anti-β2m detection; reference: free β2m
[2] = test system: Bcl-X(L)-specific, CD8 positive T cells; details: PBL from a breast cancer patient, 106 PBL/well in doublets, compared to the absence of added peptide, FIG. 11; cited from earlier work
[3] = test system: T2 cells loaded with Bcl-X(L)173-182 peptide; details: different concentrations of peptide, E:T ratio 1:1, FIG. 14; cited from earlier work

Row | Substance | OD450 ratio against the negative control β2m [1] [fold] | ELISPOT detection of BclX(L) specific T-cells (number of spots, IFN-gamma producing T-cells) [2] | effect of the peptide on killing of pulsed T2 target cells by clone 9 [3]
1 | W6/32 mouse-anti-HLA-ABC antibody (Dako M0736) | > 6 | – | –
2 | YLNDHLEPWI (listed as Homo sapiens) | – | clearly shows the presence of BclX(L) specific T-cells | significant even at low concentrations
